Assay results as given in patent US9428815B2, “HIV-1 reverse transcriptase codon deletion and its use in the management and treatment of HIV infections” (Emory University, priority 2007, dated 2016).

What was measured:
[1] = test system: Recombinant S68del Reverse Transcriptase; assay: Heteropolymeric DNA polymerase RT assay in the absence of ATP, recombinant S68del RT; format: biochemical, HIV-1; conditions: Recombinant S68del RT IC50 divided by wild type IC50
Experimental: (§1) Nucleic acids were separated by gel electrophoresis in a TAE gel and extracted from bands using the Qiagen gel extraction kit. The 4.2 kb band from pNL4-3 containing the HIV-RT encoding sequences was ligated into the linearized pCR2.1, making the construct MC002. Site directed mutagenesis was performed on the MC002 plasmid. Primers used had the S68 codon AGT deleted, thus introducing the S68 deletion into the pNL4-3 RT background.
(§2) To ligate the RT of pNL4-3 comprising the deletion at S68 codon 68 into protein expression vector […] (Invitrogen), MC002 was amplified using forward primer 5′-[…]-3′ (SEQ ID NO: 10) and reverse primer 5′-[…] […]-3′ (SEQ ID NO: 11). The PCR product and pQE60 were digested with Bgl II and Nco I. The digested products were separated by gel electrophoresis nucleic acids in excised gel bands extracted using the Qiagen gel extraction kit. The amplified PCR product comprising the RT of pNL4-3 was ligated into the linearized pQE60. The ligation mix was transformed into chemically competent bacteria (Alpha-select). Plasmid DNA from selected transformants was extracted using a mini-prep kit (Qiagen). Plasmid DNA was sequenced in both directions to confirm the ligation.
(§3) The principle and performance of the non-radioactive RT assay has been described (Lennerstrand et al., Antimicrob. Agents Chemother. 2007; 51:2078-2084). Separate kit components, such as covalently-linked DNA microtiter plates and tracer solution (alkaline phosphate (AP)-conjugated anti-BrdU antibody) were obtained from Cavidi Tech, Uppsala, Sweden. In brief, the 96-well microtiter plate used consisted of an 18 base heteropolymeric DNA primer covalently bound to the well. In the RT assay, the DNA primer is bound to a 50-base DNA template at 50 ng/well (190 nM) with a 5′-A12-3′ tail with a 5′-(GTCA)5-3′ repeat (Integrated DNA Technologies, USA). The RT assay reaction mixture (total volume 150 μl/well) contained: Hepes 50 mM, pH 7.3; MgCl2 10 mM; Triton X-100 0.5%; bovine serum albumin 0.1 mg/ml; dATP, dGTP, dCTP and 5-bromo-2′-deoxyuridine-5′-triphosphate (BrdUTP) at 1.0 μM each (where BrdUTP replaces TTP) (Sigma). To obtain ATP primer unblocking reaction in the assay, the ATP (Amersham/GE Health Care) was set to physiological concentration (3.2 mM). However, the ATP was only used in the assay with virus pellets as sample, not merely for primer unblocking reaction but to protect degradation of substrate in the crude sample. Furthermore, the dNTP level including BrdUTP was increased from 1 μM to 4 μM for the assay with the virus pellet samples. Subsequently, in the assay with recombinant purified RT enzyme, no ATP besides 1 μM dNTP was used.
(§4) The reaction was started with the addition of RT either as recombinant or crude virus pellet form in a similar activity range as previous published (Lennerstrand et al., Antimicrob. Agents Chemother. 2007; 51:2078-2084). The RT reaction mixture was incubated at 33° C. for 180 min and terminated by NaOH (to dehybridize the template) and water washing of the plates.

[2] = molecular target: T1, Recombinant S68del Reverse Transcriptase (Human immunodeficiency virus type 1 group M subtype B, UniProt P12497, DEL655-655); assay: as above; format: biochemical, HIV-1
T1 construct: The amplified PCR product comprising the RT of pNL4-3 was ligated into the linearized pQE60; inferred from the pQE60 vector and the in-frame BglII site of the reverse primer without a stop codon) (C); made in house; host or cells: bacteria
Experimental: as §1, §2, §3, §4

[3] = molecular target: T2, Wild type Reverse Transcriptase (Human immunodeficiency virus type 1 group M subtype B, UniProt P12497); assay: Heteropolymeric DNA polymerase RT assay in the absence of ATP, wild type RT; format: biochemical, HIV-1; conditions: for IC50: Wild type RT; for Fold-incr: Wild type RT (reference)
T2 construct: The level of resistance to NRTI-TP by the S68del mutants compared to wild type RT
Experimental: The level of resistance to NRTI-TP by the S68del mutants compared to wild type RT was determined as IC50 values of RT activity in the absence of ATP (Table 6). […] The RT activity was linear during the assay time within the substrate range used, and thus steady state kinetics were assumed.

[4] = molecular target: T3, RT from virally-derived S68del (Human immunodeficiency virus type 1 group M subtype B, UniProt P03367, DEL667-667); assay: Heteropolymeric-DNA colorimetric RT assay with 3.2 mM ATP, particle-derived S68del RT; format: biochemical, HIV-1; conditions: for fold increase in resistance: virally-derived S68del RT, relative to HIVLAI, enzymatic assay; for resistance of S68del RT (in words): particle-derived RT, 3.2 mM ATP, FIG. 5
T3 construct: The resistance of RT derived from S68del and M184V particles; made in house; host or cells: crude virus pellet; the virus was passaged in human PBM cells
Text: as §3, §4

[5] = test system: HIVs68Δ-23 (S68del virus isolated at week 23); assay: 3H-TTP RT incorporation assay, drug susceptibility of in vitro-selected S68del virus in human PBM cells; format: cell-based, HIV-1; conditions: for EC50 / EC90: HIVs68Δ-23 in human PBM cells, averages of 2-6 independent experiments; for FI EC50 (fold increase in 50% effective concentration) / FI EC90 (fold increase in 90% effective concentration): HIVs68Δ-23 relative to HIVLAI; for resistance of S68del (in words): S68del mutant HIV, summary statement; for HIVs68Δ-23 susceptibility (in words): NNRTI / PI
Experimental: Peripheral blood mononuclear (PBM) cells were separated by ficoll-hypaque (Histopaque 1077: Sigma) density gradient centrifugation from Buffy coats obtained from the American Red Cross (Atlanta, Ga.). Buffy coats were derived from healthy seronegative donors. Cells were activated with 3 μg/ml phytohaemagglutinin A (Sigma-Aldrich, St. Louis, Mo.) in 500 ml of RPMI-1640 (Mediatech Inc., Herndon, Va.) containing 100 ml heat-inactivated fetal bovine serum (Hyclone), 83.3 IU/ml penicillin, 83.3 μg/ml streptomycin, 1.6 mM L-glutamine (Mediatech Inc., Herndon, Va.), for 2-3 days prior to use.
Drug resistance of the S68del virus isolated at week 23 (HIVs68Δ-23) was measured with the 3H-TTP RT incorporation assay in human PBM cells (Schinazi, et al., Antimicrob. Agents Chemother. 1990; 34:1061-1067; Stuyver et al., Antimicrob. Agents Chemother. 2002; 46:3854-60). HIVs68Δ-23 was population sequenced to ensure the dominant population was the deletion at codon 68. […] The susceptibility of the S68del virus to several nucleoside reverse transcriptase inhibitors (NRTI), a non-nucleoside reverse transcriptase inhibitor (NNRTI) and a protease inhibitor (PI) was tested. Fold increases were measured relative to HIVLAI (Table 4, FIGS. 2 and 3). Data are the averages of 2-6 independent experiments.

[6] = molecular target: RT derived from M184V particles (Human immunodeficiency virus type 1 group M subtype B, UniProt P03367, M783V); conditions: particle-derived RT, 3.2 mM ATP, FIG. 5
Text: as §3, with “Subsequently, in the assay with recombinant purified RT enzyme, no ATP besides 1 μM dNTP was used.” left out

S68delpNL4-3 = assay: microbe, parasite or virus in culture; format: cell-based, HIV-1
Text: An intermediate vector with a 4 kb fragment of pNL4-3 ([…]) containing the RT coding region was cloned into the pCR2.1 vector (Invitrogen). […] The HIV-1 fragment from the intermediate vector was digested with Spe I/Age I and subcloned into the full-length pNL4-3 vector. The S68del pNL4-3-based infectious clone was then transfected into HEK293T cells and supernatant was collected after 4 days. The supernatant obtained from HEK293T was used to infect fresh PBM cells, after which the HIV-1 virus pool was passaged to establish an infective pool.
Four concentrations were tested in duplicate for each data point.

pNL4-3 = assay: Quantitative HIV-1 real-time PCR assay in human PBM cells, pNL4-3 virus; format: cell-based; conditions: Human immunodeficiency virus 1, PBMC, pNL4-3 in human PBM cells
Text: The real-time PCR assay for quantifying virus levels in PBM cells serves as a more sensitive method for measuring drug resistance of S68del HIV-1 than other standard methods. SK38 Primer: ATAATCCACCTATCCCAGTAGGAGAAAT (SEQ ID NO: 1) and SK39 Primer: TTTGGTCCTTGTCTTATGTCCAGAATGC (SEQ ID NO: 2) were used in the real-time PCR assay. The presence of amplified product was detected with the SK19 probe: ATCCTGGGATTAAATAAAATAGTAAGAATGTATAG (SEQ ID NO: 3). […] Four concentrations were tested in duplicate for each data point.

[7] = Human immunodeficiency virus 1, PBMC
[8] = Human immunodeficiency virus 1, PBMC, S68del in pNL4-3, human PBM cells, real-time PCR

Compound: Nc1nc(=O)n(C2CSC(COP(=O)(O)OP(=O)(O)OP(=O)(O)O)O2)cc1F (single isomer, unassigned; (-)) [(−)FTC-TP]
- Fold-incr [1]: 7.7
- IC50 [2]: 27000 ± 2000 nM
- IC50 [3]: 3500 ± 300 nM
- Fold-incr [3]: 1.0
- fold increase in resistance [4]: 10 fold

Compound: Nc1nc(NC2CC2)c2ncn([C@H]3C=C[C@@H](CO)C3)c2n1.O=C(O)CCC(=O)O [Abacavir, (1S,4R)-4-[2-amino-6-(cyclopropyl-amino)-9H-purin-9-yl]-2-cyclopentene-1-methanol succinate]
- EC50 [5, 7]: 3900 nM
- EC90 [5, 7]: 11300 nM

Compound: Nc1nc(=O)n(C2C=CC(COP(=O)(O)OP(=O)(O)OP(=O)(O)O)O2)cc1F (stereo not drawn) [DFC-TP]
- Fold-incr [1]: 7.9
- IC50 [2]: 1100 ± 200 nM
- IC50 [3]: 140 ± 20 nM
- Fold-incr [3]: 1.0
- fold increase in resistance [4]: 5.6 fold

Compound: Nc1nc2c(ncn2C2COC(CO)O2)c(=O)[nH]1 (single isomer, unassigned; (-)) [DXG, (−)-9-(beta-D-dioxolane)guanine]
- EC50 [5]: 1600 nM
- EC90 [5]: 5100 nM
- FI EC50 (fold increase in 50% effective concentration) [5]: 6.2
- FI EC90 (fold increase in 90% effective concentration) [5]: 3.7

Compound: Nc1ccn([C@H]2CC[C@@H](CO)O2)c(=O)n1 [DDC, 2′,3′-dideoxycytidine]
- EC50 [5, 7]: 220 nM
- EC90 [5, 7]: 930 nM
- resistance of S68del (in words) [5]: does not show increased resistance

Compound: Nc1nc(N)c2ncn([C@H]3CO[C@@H](CO)O3)c2n1 [DAPD, (−)-beta-D-2,6-diaminopurine dioxolane]
- FI EC50 (fold increase in 50% effective concentration) [5]: 38.2
- FI EC90 (fold increase in 90% effective concentration) [5]: 32.4
- EC50 [5, 7]: 7900 nM
- EC90 [5, 7]: 34500 nM

Compound: Cc1cn(C2CC(N=[N+]=[N-])C(COP(=O)(O)OP(=O)(O)OP(=O)(O)O)O2)c(=O)[nH]c1=O (stereo not drawn) [AZT-TP]
- Fold-incr [1]: 2.6
- IC50 [2]: 700 ± 100 nM
- IC50 [3]: 270 ± 20 nM
- Fold-incr [3]: 1.0
- fold increase in resistance [4]: 2.5 fold

Compound: Nc1nc(=O)n([C@@H]2CS[C@H](CO)O2)cc1F (relative stereo) [(−)-FTC, cis-2-hydroxymethyl-5-(5-fluorocytosin-1-yl)-1,3-oxathiolane]
- resistance of S68del RT (in words) [4]: increased resistance
- resistance of M184V RT (in words) [6]: increased resistance
- EC50 [5, 7]: 300 nM
- EC90 [5, 7]: 1100 nM

Compound: Nc1nc(=O)n([C@H]2C=C[C@@H](CO)O2)cc1F [DFC, β-D-2′,3′-didehydro-2′,3′-dideoxy-5-fluorocytidine]
- EC50 (S68delpNL4-3; [8]): 3100 nM
- EC90 (S68delpNL4-3; [8]): 8500 nM
- FI50, Fold Increase for S68del in 50% effective concentration (S68delpNL4-3; S68del in pNL4-3 versus pNL4-3): 14.7
- FI90, Fold Increase for S68del in 90% effective concentration (S68delpNL4-3; S68del in pNL4-3 versus pNL4-3): 3.7
- resistance of S68delpNL4-3 (in words) (S68delpNL4-3; real-time PCR, human PBM cells): increased resistance
- resistance of S68del RT (in words) [4]: increased resistance
- EC50 [5, 7]: 1100 nM
- EC90 [5, 7]: 3400 nM
- EC50 (pNL4-3): 210 nM
- EC90 (pNL4-3): 2300 nM

Compound: OC[C@@H]1CC[C@H](n2cnc3c(O)ncnc32)O1 [DDI, 2′,3′-dideoxyinosine]
- EC50 [5, 7]: 630 nM
- EC90 [5, 7]: 4500 nM
- resistance of S68del (in words) [5]: does not show increased resistance

Compound: O=C1Nc2ccc(Cl)cc2[C@@](C#CC2CC2)(C(F)(F)F)O1 [Sustiva, (S)-6-chloro-4-cyclopropylethynyl-4-trifluoromethyl-1,4-dihydro-2H-3,1-b-enzoxazin-2-one]
- EC50 [5, 7]: 0.39 nM
- EC90 [5, 7]: 3.5 nM
- HIVs68Δ-23 susceptibility (in words) [5]: not significantly changed

Compound: CC(C)OC(=O)OCOP(=O)(CO[C@H](C)Cn1cnc2c(N)ncnc21)OCOC(=O)OC(C)C.O=C(O)/C=C/C(=O)O [TDF, 9-[(R)-2-[[bis[[(isopropoxycarbonyl)oxy]methoxy]phosphinyl]methoxy]propyl]adenine fumarate]
- EC50 [5, 7]: 430 nM
- EC90 [5, 7]: 1600 nM

Compound: Cc1cccc(C)c1OCC(=O)N[C@@H](Cc1ccccc1)[C@@H](O)C[C@H](Cc1ccccc1)NC(=O)[C@H](C(C)C)N1CCCNC1=O [Lopinavir]
- EC50 [5, 7]: 6 nM
- EC90 [5, 7]: 19 nM
- HIVs68Δ-23 susceptibility (in words) [5]: not significantly changed

Compound: Cc1cn([C@H]2C=C[C@@H](CO)O2)c(=O)[nH]c1=O [D4T, 2′,3′-dideoxy-2′,3′-didehydrothymidine]
- EC50 [5, 7]: 410 nM
- EC90 [5, 7]: 1500 nM
- resistance of S68del (in words) [5]: does not show increased resistance

Compound: Nc1ccn([C@@H]2CS[C@H](CO)O2)c(=O)n1 [3TC, (−)-cis-2-hydroxymethyl-5-(cytosin-1-yl)-1,3-oxathiolane]
- EC50 [5, 7]: 880 nM
- EC90 [5, 7]: 3300 nM

Compound: Cc1cn([C@H]2C[C@H](N=[N+]=[N-])[C@@H](CO)O2)c(=O)[nH]c1=O [AZT, 3′-azido-3′-deoxythymidine]
- EC50 [5, 7]: 3.8 nM
- EC90 [5, 7]: 14 nM
- resistance of S68del (in words) [5]: does not show increased resistance
- EC50 (pNL4-3): 130 nM
- EC90 (pNL4-3): 330 nM
